Data set [1] relates to cholesterol biosynthesis in Hep G2 cells. Kind of data set: Test B-1: Inhibition of cholesterol biosynthesis in culture cells (Hep G2). Particulars: Homo sapiens, HepG2, 100×10^-9 M/l, [2-14C]sodium acetate added at 0 hr, read-out: Inhibition activities by Test B-1. Format: cell-based. How it is done: Hep G2 cells at over 5th passage were seeded to 12 well plates and incubated with Dulbecco's modified Eagle (DME) medium containing 10% of fetal bovine serum (FBS) at 37° C., 5% CO2 until cells were confluent for about 7 days. Cells were exposed to the DME medium containing 5% of lipoprotein deficient serum (LpDS) prepared by ultracentrifugation method for over 24 hours. Medium was changed to 0.5 ml of fresh 5% LpDS containing DME before assay and 10 μl of test compound solution dissolved in water or DMSO were added. 0.2 μCi of [2-^14 C]sodium acetate (20 μl) was added at 0 hr(B-1) or 4 hrs(B-2) after addition of compounds. After 4 hrs further incubation with [2-^14 C] sodium acetate, medium was removed and cells were washed with phosphate buffered saline (PBS) chilled at 4° C. Cells were scraped with rubber policeman and collected to tubes with PBS and digested with 0.2 ml of 0.5 N KOH at 37° C. Aliquot of digestion was used for protein analysis and remaining was saponified with 1 ml of 15% EtOH-KOH at 75° C. for 1 hour. Nonsaponifiable lipids were extracted with petroleum ether and ^14 C radioactivity was counted. Counts were revised by cell protein and indicated with DPM/mg protein. Inhibitory activity of compounds was indicated with IC50.
With respect to the compounds of the present invention, the inhibitory activities against the cholesterol biosynthesis in which HMG-CoA reductase serves as a rate limiting enzyme, were measured by the above Test A and B. The results are shown in Tables 2 and 3.
In Table 3, the inhibition activities of the test compounds at a concentration of 100×10^-9 M/l, are shown.

In data set [2] the test system is cholesterol biosynthesis in which HMG-CoA reductase serves as a rate limiting enzyme. Kind of data set: Test A: Inhibition of cholesterol biosynthesis from acetate in vitro. Particulars: for Relative activities by Test A: based on the activities of CS-514 by Test A being evaluated to be 1. The class given is biochemical, male Wistar rat. How it is done:
Enzyme solution was prepared from liver of male Wistar rat billialy connulated and discharged bile for over 24 hours. Liver was cut out at mid-dark and microsome and supernatant fraction which was precipitable with 40-80% of solution of ammonium sulfate (sup fraction) were prepared from liver homogenate according to the modified method of Knauss et. al.; Kuroda, M., et. al., Biochim. Biophys. Acta, 489, 119 (1977). For assay of cholesterol biosynthesis, microsome (0.1 mg protein) and sup fraction (1.0 mg protein) were incubated for 2 hours at 37° C. in 200 μl of the reaction mixture containing ATP; 1 mM, Glutathione; 6 mM, Glucose-1phosphate; 10 mM, […]; 0.25 mM, NADP; 0.25 mM, CoA; 0.04 mM and 0.2 mM [2-14C]sodium acetate (0.2 μCi) with 4 μl of test compound solution dissolved in water or dimethyl sulfoxide. To stop reaction and saponify, 1 ml of 15% EtOH-KOH was added to the reactions and heated at 75° C. for 1 hour. Nonsaponifiable lipids were extracted with petroleum ether and incorporated ^14 C radioactivity was counted. Inhibitory activity of compounds was indicated with IC50.

For the next data set, the system named is cholesterol biosynthesis. Put plainly: Test C: Inhibition of cholesterol biosynthesis in vivo. More on the design: species or system male Sprague-Dawley rats. Conditions: oral, 0.2 mg/kg. How it is done: Male Sprague-Dawley rats weighing about 150 g were fed normal Purina chow diet and water ad libitum, and exposed to 12 hours light/12 hours dark lighting pattern
(2:00 PM -2:00 AM dark) prior to use for in vivo inhibition test of cholesterol biosynthesis. Animals were separated groups consisting of five rats as to be average mean body weight in each groups. Test compounds at dosage of 0.02-2.0 mg/kg body weight (0.4 ml/100 g body weight), were dissolved in water or suspended in 0.5% methyl cellulose and orally administered at 2-3 hours before mid-dark (8:00 PM), while cholesterol biosynthesis reaches to maximum in rats. As control, rats were orally administered only water or vehicle. At 90 minutes after sample administration, rats were injected intraperitoneally with 10 μCi of [2-^14 C]sodium acetate at volume of 0.2 ml per one. 2 Hours later, blood samples were obtained and serum were separated immediately. Total lipids were extracted according to the method of Folch et al. and saponified with EtOH-KOH. Nonsaponifiable lipids were extracted with petroleum ether and radio activity incorporated into nonsaponifiable lipids was counted.
Inhibitory activity was indicated as percent decrease of counts in testing groups (DPM/2 ml serum/2 hours) from that in control group.

The subject of another data set is ICR male mice. Put plainly: Test D: Acute toxicity. Conditions: oral, 0.5% CMC suspension, group of three mice; dose not given. The class given is in vivo. How it is done: A 0.5% CMC suspension of a test compound was orally administered to ICR male mice (group of three mice). The acute toxicity was determined based on the mortality after seven days.

Data on 6 compounds can be found in patent US4977161A, “Isoxazolopyridine type mevalonolactones” (Nissan Chemical Industries, Ltd., priority 1988, dated 1990).

For `CCOC(=O)CC(O)CC(O)/C=C/c1c(C(C)C)nc2onc(-c3ccccc3)c2c1-c1ccc(F)cc1` (stereo not drawn) [Compound I-1-2], the inhibition at 0.1 µM in data set [1] was determined as 57.3%.

For the compound `Cc1noc2nc(C(C)C)c(/C=C/C(O)CC(O)CC(=O)O)c(-c3ccc(F)cc3)c12` (stereo not drawn) [Compound I-5-1, Sodium (E)-7-[4'-(4"-fluorophenyl)-3'-methyl-6'-(1"-methylethyl)isoxazolo[5,4-b]pyridin-5'-yl]-3,5-dihydroxyhept-6-enoate], the “Relative activities by Test A” value in data set [2] turned out to be 1.3.

As to `CCOC(=O)CC(O)CC(O)/C=C/c1c(C(C)C)nc2onc(C)c2c1-c1ccc(F)cc1` (stereo not drawn) [Compound I-1-1], the “Relative activities by Test A” value in data set [2] is given as 1.6. Besides, the inhibition at 0.1 µM in data set [1] was found to be 50.1%.

`CC[C@H](C)C(=O)O[C@H]1C[C@H](O)C=C2C=C[C@H](C)[C@H](CC[C@@H](O)C[C@@H](O)CC(=O)O)[C@H]21` [CS-514, reference compound] returned a 50% inhibitory concentration (IC50) in data set [2] (rat liver microsome and sup fraction, [2-14C]sodium acetate, 2 hours at 37° C.) of 9 nM. Also, the inhibition at 0.1 µM in data set [1] was 18.4%. Moreover, in the data set on cholesterol biosynthesis, the “percent decrease of counts relative to the control group (DPM/2 ml serum/2 hours)” value is 34%.

With `CCOC(=O)CC(=O)CC(O)/C=C/c1c(C(C)C)nc2onc(C)c2c1-c1ccc(F)cc1` (stereo not drawn) [Compound II-1, Ethyl (E)-7-[4'-(4"-fluorophenyl)-3'-methyl-6'-(1"-methylethyl)isoxazolo[-5,4-b]pyridin-5-yl]-5'-hydroxy-3-oxohepto-6-enoate], the inhibition at 0.1 µM in data set [1] was found to be 52.6%.

On to `CC(C)c1nc2onc(-c3ccccc3)c2c(-c2ccc(F)cc2)c1/C=C/C(O)CC(O)CC(=O)O` (stereo not drawn) [Compound I-5-2], for which, in data set [2], the “Relative activities by Test A” value was determined as 0.6. Also, the inhibition at 0.1 µM in data set [1] was determined as 43.2%. In addition, the “percent decrease of counts relative to the control group (DPM/2 ml serum/2 hours)” value with cholesterol biosynthesis worked out at 34.3%. Besides, in the data set on ICR male mice, the “acute toxicity, mortality after seven days” value is given as “only one animal of the three animals died”.

Usually inhibition stands for the share of the control response that was lost under treatment. One may read the IC50 as the concentration at which inhibition is half-maximal. Low readings indicate higher potency, high ones lower potency.
